Patent US10316323B2, “Microorganisms engineered to use unconventional sources of nitrogen” (priority 2013, dated 2019)

System: cyanamide
Experiment: Utilization of cyanamide in rich YPD medium by S. cerevisiae strains
Assay type: cell-based
Conditions: 10 mM cyanamide in YPD medium
Method: Optical density of NS100 and NS101 grown in rich YPD medium with 100 μg/mL hydgromycin and with and without 10 mM cyanamide. NS100 and NS101 were grown overnight in YNB medium, and inoculated at 3.33% v/v. […] Data are averages of 3 replicate wells in a 96 well plate; 150 μL per well. 30° C., YPD medium or YPD medium with 10 mM cyanamide. Inoculation was with 5 μL of culture pregrown for 24 hrs in the YNB medium with urea as nitrogen source.

SMILES: N#CN [cyanamide]
- effect of cyanamide on microbial growth: act as a deterrent for microbial growth
